According to patent US20250161289A1, “KAT6 Targeting Compounds” (Prelude Therapeutics Incorporated, priority 2023, published 2025):

Target: T1, KAT6A (Homo sapiens, UniProt Q92794)
T1 construct: expressed in transfected cells; host or cells: HeLa
Test: HiBit KAT6A Degradation Assessment
Type: cell-based
Conditions: HeLa cells with a HiBit tagged KAT6A; for Dmax: HeLa
Procedure: The degradation activity of compounds was evaluated by measuring levels of KAT6A protein using the HiBiT system. These studies were conducted in HeLa cells with a HiBit tagged KAT6A. Cells were maintained in a 37° C. incubator at 5% CO2 in EMEM or DMEM (ATCC, 30-2003) supplemented with 10% v/v FBS (Gibco, 26140-079) and 1% penicillin streptomycin. Cells were seeded in 384-well plates at a density of 2,000 cells/well. Compounds dissolved in DMSO were added in 9-point serial dilution. After 18-24 h of treatment, KAT6A levels were measured using the Nano-Glo® HiBiT Lytic Detection System (Promega catalog number N3030) per manufacturer's instructions. Luminescence signal was measured with a multimode plate reader (Envision 2105, Perkin Elmer or PHERAStar FSX, BMG Labtech). Luminescence values were normalized to background and DMSO controls to quantify KAT6A for each condition. Results were analyzed, and DC50 and Dmax values obtained using a four-parameter logistic curve fit. The results are summarized in Table 3 (18 h of treatment) and Table 4 (24 h of treatment).

T1 sequence (Q92794 whole entry): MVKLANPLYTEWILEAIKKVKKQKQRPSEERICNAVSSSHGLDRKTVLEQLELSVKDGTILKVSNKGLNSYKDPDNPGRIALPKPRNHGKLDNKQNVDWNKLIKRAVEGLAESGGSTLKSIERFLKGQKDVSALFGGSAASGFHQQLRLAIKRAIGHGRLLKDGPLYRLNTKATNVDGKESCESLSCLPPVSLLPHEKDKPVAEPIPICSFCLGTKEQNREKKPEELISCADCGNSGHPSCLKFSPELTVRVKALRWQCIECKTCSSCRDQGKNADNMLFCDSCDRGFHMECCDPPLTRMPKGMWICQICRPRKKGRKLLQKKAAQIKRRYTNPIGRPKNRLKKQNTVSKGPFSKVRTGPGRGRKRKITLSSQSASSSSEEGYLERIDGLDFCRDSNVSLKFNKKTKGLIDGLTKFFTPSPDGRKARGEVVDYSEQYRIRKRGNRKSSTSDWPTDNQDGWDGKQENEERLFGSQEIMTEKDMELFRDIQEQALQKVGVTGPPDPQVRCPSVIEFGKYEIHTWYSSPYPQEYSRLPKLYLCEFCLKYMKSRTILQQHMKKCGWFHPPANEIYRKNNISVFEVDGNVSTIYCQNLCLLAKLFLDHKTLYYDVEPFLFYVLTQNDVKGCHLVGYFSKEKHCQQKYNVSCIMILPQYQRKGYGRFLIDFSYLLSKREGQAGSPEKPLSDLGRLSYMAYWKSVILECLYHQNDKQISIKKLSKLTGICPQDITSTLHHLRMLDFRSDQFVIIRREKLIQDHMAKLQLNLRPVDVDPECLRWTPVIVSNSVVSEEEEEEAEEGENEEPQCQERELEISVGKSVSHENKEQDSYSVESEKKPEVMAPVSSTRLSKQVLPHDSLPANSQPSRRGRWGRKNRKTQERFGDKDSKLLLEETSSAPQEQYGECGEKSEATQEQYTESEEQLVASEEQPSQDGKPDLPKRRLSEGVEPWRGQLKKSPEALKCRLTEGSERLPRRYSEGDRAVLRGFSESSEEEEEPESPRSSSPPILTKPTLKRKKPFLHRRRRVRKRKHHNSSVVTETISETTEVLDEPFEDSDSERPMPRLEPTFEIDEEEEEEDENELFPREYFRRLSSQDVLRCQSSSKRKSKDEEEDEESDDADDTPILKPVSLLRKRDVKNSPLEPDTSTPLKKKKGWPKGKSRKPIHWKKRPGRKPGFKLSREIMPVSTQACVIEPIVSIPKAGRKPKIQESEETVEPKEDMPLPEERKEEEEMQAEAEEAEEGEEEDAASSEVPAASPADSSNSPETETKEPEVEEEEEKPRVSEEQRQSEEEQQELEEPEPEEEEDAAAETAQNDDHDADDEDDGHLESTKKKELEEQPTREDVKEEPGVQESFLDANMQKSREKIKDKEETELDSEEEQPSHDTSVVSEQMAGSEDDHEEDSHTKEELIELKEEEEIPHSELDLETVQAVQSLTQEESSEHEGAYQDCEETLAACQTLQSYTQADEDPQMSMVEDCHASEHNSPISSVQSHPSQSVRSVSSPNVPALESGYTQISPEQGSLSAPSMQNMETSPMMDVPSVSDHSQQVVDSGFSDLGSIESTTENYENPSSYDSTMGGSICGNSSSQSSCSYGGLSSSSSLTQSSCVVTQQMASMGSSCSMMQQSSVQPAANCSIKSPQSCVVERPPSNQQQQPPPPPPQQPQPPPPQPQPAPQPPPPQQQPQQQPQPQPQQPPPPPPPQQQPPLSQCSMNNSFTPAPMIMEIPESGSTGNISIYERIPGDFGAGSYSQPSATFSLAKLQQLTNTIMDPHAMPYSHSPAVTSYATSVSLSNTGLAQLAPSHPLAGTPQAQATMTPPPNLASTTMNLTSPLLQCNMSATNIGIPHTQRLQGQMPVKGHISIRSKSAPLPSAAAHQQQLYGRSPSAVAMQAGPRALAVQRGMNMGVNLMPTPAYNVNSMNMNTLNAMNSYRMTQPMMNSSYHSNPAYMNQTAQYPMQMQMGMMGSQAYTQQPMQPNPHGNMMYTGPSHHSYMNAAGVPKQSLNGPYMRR

SMILES | DC50 (18 h of treatment) | DC50 (24 h of treatment) | Dmax (18 h of treatment) | Dmax (24 h of treatment)
O=C1CC[C@H](N2Cc3cc(N4CC[C@@H](CN5CCC6(CC5)CN(c5cccc(S(=O)(=O)Nc7noc8cc(Cn9cccn9)c9c(c78)OCC9)c5)C6)C4)ccc3C2=O)C(=O)N1 [Example 1, N-(4-((1H-Pyrazol-1-yl)methyl)-2,3-dihydrobenzofuro[7,6-d]isoxazol-8-yl)-3-(7-(((S)-1-(2-((S)-2,6-dioxopiperidin-3-yl)-1-oxoisoindolin-5-yl)pyrrolidin-3-yl)methyl)-2,7-diazaspiro[3.5]nonan-2-yl)benzenesulfonamide] | < 10 nM | 10 to 100 nM | > 75% | 50 to 75%
O=C1CC[C@H](N2Cc3cc(N4CC[C@@H](CN5C[C@H]6CN(c7cccc(S(=O)(=O)Nc8noc9cc(Cn%10cccn%10)c%10c(c89)OCC%10)c7)C[C@@H]6C5)C4)ccc3C2=O)C(=O)N1 [Example 2, N-(4-((1H-Pyrazol-1-yl)methyl)-2,3-dihydrobenzofuro[7,6-d]isoxazol-8-yl)-3-((3aS,6aS)-5-(((S)-1-(2-((S)-2,6-dioxopiperidin-3-yl)-1-oxoisoindolin-5-yl)pyrrolidin-3-yl)methyl)hexahydropyrrolo[3,4-c]pyrrol-2(1H)-yl)benzenesulfonamide] | 10 to 100 nM | – | > 75% | –
O=C1CC[C@H](N2Cc3cc(N4CC[C@@H](CN5CCC6(CC5)CCN(c5cccc(S(=O)(=O)Nc7noc8cc(Cn9cccn9)c9c(c78)OCC9)c5)CC6)C4)ccc3C2=O)C(=O)N1 [Example 3, N-(4-((1H-Pyrazol-1-yl)methyl)-2,3-dihydrobenzofuro[7,6-d]isoxazol-8-yl)-3-(9-(((S)-1-(2-((S)-2,6-dioxopiperidin-3-yl)-1-oxoisoindolin-5-yl)pyrrolidin-3-yl)methyl)-3,9-diazaspiro[5.5]undecan-3-yl)benzenesulfonamide] | 10 to 100 nM | – | > 75% | –
O=C1CC[C@H](N2Cc3cc(N4CC[C@@H](CN5CC6(CCN(c7cccc(S(=O)(=O)Nc8noc9cc(Cn%10cccn%10)c%10c(c89)OCC%10)c7)CC6)C5)C4)ccc3C2=O)C(=O)N1 [Example 4, N-(4-((1H-Pyrazol-1-yl)methyl)-2,3-dihydrobenzofuro[7,6-d]isoxazol-8-yl)-3-(2-(((S)-1-(2-((S)-2,6-dioxopiperidin-3-yl)-1-oxoisoindolin-5-yl)pyrrolidin-3-yl)methyl)-2,7-diazaspiro[3.5]nonan-7-yl)benzenesulfonamide] | 10 to 100 nM | – | > 75% | –
O=C1CC[C@H](N2Cc3cc(N4CC[C@@H](CNC5CCN(c6cccc(S(=O)(=O)Nc7noc8cc(Cn9cccn9)c9c(c78)OCC9)c6)CC5)C4)ccc3C2=O)C(=O)N1 [Example 5, N-(4-((1H-Pyrazol-1-yl)methyl)-2,3-dihydrobenzofuro[7,6-d]isoxazol-8-yl)-3-(4-((((S)-1-(2-((S)-2,6-dioxopiperidin-3-yl)-1-oxoisoindolin-5-yl)pyrrolidin-3-yl)methyl)amino)piperidin-1-yl)benzenesulfonamide] | – | – | 25 to 50% | –
O=C1CCC(N2C(=O)c3ccc(N4CCC5(CC4)CC(N4CCN(c6cccc(S(=O)(=O)Nc7noc8cc(Cn9cccn9)c9c(c78)OCC9)c6)CC4)C5)cc3C2=O)C(=O)N1 (stereo not shown) [Example 6, N-(4-((1H-Pyrazol-1-yl)methyl)-2,3-dihydrobenzofuro[7,6-d]isoxazol-8-yl)-3-(4-(7-(2-(2,6-dioxopiperidin-3-yl)-1,3-dioxoisoindolin-5-yl)-7-azaspiro[3.5]nonan-2-yl)piperazin-1-yl)benzenesulfonamide] | 100 to 1000 nM | – | 50 to 75% | –

Next, values leading:

DC50 (18 h of treatment) | DC50 (24 h of treatment) | Dmax (18 h of treatment) | Dmax (24 h of treatment) | SMILES
100 to 1000 nM | – | 50 to 75% | – | O=C1CCC(N2C(=O)c3cccc(N4CCC(CN5CCN(c6cccc(S(=O)(=O)Nc7noc8cc(Cn9cccn9)c9c(c78)OCC9)c6)CC5)CC4)c3C2=O)C(=O)N1 (stereo not shown) [Example 7, N-(4-((1H-Pyrazol-1-yl)methyl)-2,3-dihydrobenzofuro[7,6-d]isoxazol-8-yl)-3-(4-((1-(2-(2,6-dioxopiperidin-3-yl)-1,3-dioxoisoindolin-4-yl)piperidin-4-yl)methyl)piperazin-1-yl)benzenesulfonamide]
< 10 nM | – | > 75% | – | O=C1CCC(N2C(=O)c3ccc(N4CCC(CN5CCC(CN6CCN(c7cccc(S(=O)(=O)Nc8noc9cc(Cn%10cccn%10)c%10c(c89)OCC%10)c7)CC6)CC5)C4)cc3C2=O)C(=O)N1 (stereo not shown) [Example 8, N-(4-((1H-Pyrazol-1-yl)methyl)-2,3-dihydrobenzofuro[7,6-d]isoxazol-8-yl)-3-(4-((1-((1-(2-(2,6-dioxopiperidin-3-yl)-1,3-dioxoisoindolin-5-yl)pyrrolidin-3-yl)methyl)piperidin-4-yl)methyl)piperazin-1-yl)benzenesulfonamide]
< 10 nM | – | 50 to 75% | – | O=C1CCC(N2C(=O)c3ccc(N4CCC(CN5CCC(CN6CCN(c7cccc(S(=O)(=O)Nc8noc9cc(Cn%10cccn%10)c%10c(c89)OCC%10)c7)CC6)CC5)CC4)cc3C2=O)C(=O)N1 (stereo not shown) [Example 9, N-(4-((1H-Pyrazol-1-yl)methyl)-2,3-dihydrobenzofuro[7,6-d]isoxazol-8-yl)-3-(4-((1-((1-(2-(2,6-dioxopiperidin-3-yl)-1,3-dioxoisoindolin-5-yl)piperidin-4-yl)methyl)piperidin-4-yl)methyl)piperazin-1-yl)benzenesulfonamide]
– | < 10 nM | – | > 75% | COc1ccc(N2CC3(CCN(C[C@@H]4CCN(c5ccc6c(c5)CN([C@H]5CCC(=O)NC5=O)C6=O)C4)CC3)C2)c(OC)c1S(=O)(=O)Nc1noc2cc(Cn3cccn3)c3c(c12)OCC3 [Example 10, N-(4-((1H-Pyrazol-1-yl)methyl)-2,3-dihydrobenzofuro[7,6-d]isoxazol-8-yl)-3-(7-(((S)-1-(2-((S)-2,6-dioxopiperidin-3-yl)-1-oxoisoindolin-5-yl)pyrrolidin-3-yl)methyl)-2,7-diazaspiro[3.5]nonan-2-yl)-2,6-dimethoxybenzenesulfonamide]
– | < 10 nM | – | 50 to 75% | COc1ccc(N2CC3(CCN(CC4CCN(c5ccc6c(c5)C(=O)N(C5CCC(=O)NC5=O)C6=O)CC4)CC3)C2)c(OC)c1S(=O)(=O)Nc1noc2cc(Cn3cccn3)c3c(c12)OCC3 (stereo not shown) [Example 11, N-(4-((1H-Pyrazol-1-yl)methyl)-2,3-dihydrobenzofuro[7,6-d]isoxazol-8-yl)-3-(7-((1-(2-(2,6-dioxopiperidin-3-yl)-1,3-dioxoisoindolin-5-yl)piperidin-4-yl)methyl)-2,7-diazaspiro[3.5]nonan-2-yl)-2,6-dimethoxybenzenesulfonamide]
– | 10 to 100 nM | – | > 75% | COc1c(N2CC3(CCN(CC4CCN(c5ccc6c(c5)C(=O)N(C5CCC(=O)NC5=O)C6=O)CC4)CC3)C2)cccc1S(=O)(=O)Nc1noc2cc(Cn3cccn3)c3c(c12)OCC3 (stereo not shown) [Example 12, N-(4-((1H-Pyrazol-1-yl)methyl)-2,3-dihydrobenzofuro[7,6-d]isoxazol-8-yl)-3-(7-((1-(2-(2,6-dioxopiperidin-3-yl)-1,3-dioxoisoindolin-5-yl)piperidin-4-yl)methyl)-2,7-diazaspiro[3.5]nonan-2-yl)-2-methoxybenzenesulfonamide]
– | < 10 nM | – | > 75% | COc1c(N2CC3(CCN(C[C@@H]4CCN(c5ccc6c(c5)CN([C@H]5CCC(=O)NC5=O)C6=O)C4)CC3)C2)cccc1S(=O)(=O)Nc1noc2cc(Cn3cccn3)c3c(c12)OCC3 [Example 13, N-(4-((1H-Pyrazol-1-yl)methyl)-2,3-dihydrobenzofuro[7,6-d]isoxazol-8-yl)-3-(7-(((S)-1-(2-((S)-2,6-dioxopiperidin-3-yl)-1-oxoisoindolin-5-yl)pyrrolidin-3-yl)methyl)-2,7-diazaspiro[3.5]nonan-2-yl)-2-methoxybenzenesulfonamide]
– | < 10 nM | – | > 75% | COc1c(N2CC3(CCN(CC4CCN(c5cccc6c5C(=O)N(C5CCC(=O)NC5=O)C6=O)CC4)CC3)C2)cccc1S(=O)(=O)Nc1noc2cc(Cn3cccn3)c3c(c12)OCC3 (stereo not shown) [Example 14, N-(4-((1H-Pyrazol-1-yl)methyl)-2,3-dihydrobenzofuro[7,6-d]isoxazol-8-yl)-3-(7-((1-(2-(2,6-dioxopiperidin-3-yl)-1,3-dioxoisoindolin-4-yl)piperidin-4-yl)methyl)-2,7-diazaspiro[3.5]nonan-2-yl)-2-methoxybenzenesulfonamide]
– | 10 to 100 nM | – | 50 to 75% | O=C1CC[C@H](N2Cc3cc(N4CC[C@@H](CN5CCC6(CC5)CN(c5ccc(S(=O)(=O)Nc7noc8cc(Cn9cccn9)c9c(c78)OCC9)cc5)C6)C4)ccc3C2=O)C(=O)N1 [Example 15, N-(4-((1H-Pyrazol-1-yl)methyl)-2,3-dihydrobenzofuro[7,6-d]isoxazol-8-yl)-4-(7-(((S)-1-(2-((S)-2,6-dioxopiperidin-3-yl)-1-oxoisoindolin-5-yl)pyrrolidin-3-yl)methyl)-2,7-diazaspiro[3.5]nonan-2-yl)benzenesulfonamide]
